The compounds below were run against T1, 5-HT 1D beta receptors (Homo sapiens, UniProt P28222) (assay: 5-HT 1D beta binding ([3H]-5-HT displacement, homogenised CHO cells)). Conditions: not given.
T1 construct: expressed in transfected cells; host or cells: CHO cells
Experimental: 5-HT 1D ALPHA AND 5-HT 1D BETA BINDING.
CHO cells expressing 5-HT 1D beta receptors (4×10^7 cells/ml) are homogenised in Tris buffer and stored in 1.5 ml aliquots.
0.4 ml of a cell suspension was incubated with [^3 H]-5-HT (4 nM) in Tris Mg HCl buffer (pH 7.7) and test drug, at 37° C. for 45 minutes. Each test drug was tested at 10 concentrations (0.01 mM to 0.3 nM final concentration), with non-specific binding defined using 0.01 mM 5-HT. The total assay volume was 0.5 ml. Incubation was stopped by rapid filtration using a Packard Filtermate (filters pre-soaked in 0.3% polyethylenimine) and radioactivity measured by Topcount scintillation counting. The pKi values were calculated from the IC50 generally by an iterative leas squares curve fitting programme.

T1 sequence (P28222 whole entry): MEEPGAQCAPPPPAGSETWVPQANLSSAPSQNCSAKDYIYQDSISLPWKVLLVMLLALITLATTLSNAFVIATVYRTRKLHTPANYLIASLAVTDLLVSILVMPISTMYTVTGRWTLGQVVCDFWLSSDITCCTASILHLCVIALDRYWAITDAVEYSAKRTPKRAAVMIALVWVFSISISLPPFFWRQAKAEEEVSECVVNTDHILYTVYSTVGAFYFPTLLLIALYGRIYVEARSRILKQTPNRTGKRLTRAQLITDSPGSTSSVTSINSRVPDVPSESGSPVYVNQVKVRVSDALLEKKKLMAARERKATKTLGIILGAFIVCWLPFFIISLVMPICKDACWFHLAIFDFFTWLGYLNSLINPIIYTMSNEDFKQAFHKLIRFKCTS

Structure (SMILES)	Ki
CCN1CCC2(CC1)COc1cc3c(cc12)N(C(=O)c1ccc(-c2ccc(-c4nnc(C)o4)cc2C)cc1)CC3 [Example 26, 1'-Ethyl-5-[2'-methyl-4'-(5-methyl-1,3,4-oxadiazol-2-yl)biphenyl-4-carbonyl]-2,3,6,7-tetrahydrospiro[furo[2,3-f]indole-3,4'-piperidine]]	< 10 nM

Same assay, conditions: CHO cells expressing 5-HT 1D beta receptors; [3H]-5-HT (4 nM); 37° C. for 45 minutes; pKi calculated from the IC50; read-out: pKi values at 5-HT 1D beta receptors (converted)

Structure (SMILES)	Ki
Cc1cc(-c2ccc(-c3ccc(C(=O)N4CCc5cc6c(cc54)C4(CCN(C)CC4)CO6)cc3)c(C)c2)no1 [Example 45, 1'-Methyl-5-(2'-methyl-4'-(5-methylisoxazol-3-yl)biphenyl-4-carbonyl)-2,3,6,7-tetrahydrospiro[furo[2,3-f]indole-3,4'-piperidine]]	< 10 nM
Cc1nnc(-c2ccc(-c3ccc(C(=O)n4ccc5cc6c(cc54)C4(CCN(C)CC4)CO6)cc3)c(C)c2)o1 [Example 18, 2,3-Dihydro-1'-methyl-5-(2'-methyl-4'-(5-methyl-1,3,4-oxadiazol-2-yl)biphenyl-4-carbonyl)spiro[furo[2,3-f]indole-3,4'-piperidine]]	< 10 nM
Cc1cc(-c2cncn2C)ccc1-c1ccc(C(=O)N2CCc3cc4c(cc32)C2(CCN(C)CC2)CO4)cc1 [Example 54, 1'-Methyl-5-[2'-methyl-4'-(1-methylimidazol-5-yl)biphenyl-4-carbonyl]-2,3,6,7-tetrahydrospiro[furo[2,3-f]indole-3,4'-piperidine]]	< 10 nM
CCOC(=O)Nc1ccc(-c2ccc(C(=O)N3CCc4cc5c(cc43)C3(CCN(CC)CC3)CO5)cc2)c(C)c1 [Example 66, 5-[4'-(Ethoxycarbonylamino)-2'-methylbiphenyl-4-carbonyl]-1'-ethyl-2,3,6,7-tetrahydrospiro[furo[2,3-f]indole-3,4'-piperidine]]	< 10 nM
Cc1cc(-c2noc(N(C)C)n2)ccc1-c1ccc(C(=O)N2CCc3cc4c(cc32)C2(CCN(C)CC2)CO4)cc1 [Example 6, 5-(4'-(5-Dimethylamino-1,2,4-oxadiazol-3-yl)-2'-methylbiphenyl-4-carbonyl)-1'-methyl-2,3,6,7-tetrahydrospiro[furo[2,3-f]indole-3,4'-piperidine]]	< 10 nM
CCN1CCC2(CC1)COc1cc3c(cc12)N(C(=O)c1ccc(-c2ccc(-c4noc(C)n4)cc2C)cc1)CC3 [Example 4, 1'-Ethyl-5-(2'-methyl-4'-(5-methyl-1,2,4-oxadiazol-3-yl)biphenyl-4-carbonyl)-2,3,6,7-tetrahydrospiro[furo[2,3-f]indole-3,4'-piperidine]]	< 10 nM
Cc1nc(-c2ccc(-c3ccc(C(=O)n4ccc5cc6c(cc54)C4(CCN(C)CC4)CO6)cc3)c(C)c2)no1 [Example 8, 2,3-Dihydro-1'-methyl-5-(2'-methyl-4'-(5-methyl-1,2,4-oxadiazol-3-yl)biphenyl-4-carbonyl)spiro[furo[2,3-f]indole-3,4'-piperidine)]	< 10 nM
Cc1nnc(-c2ccc(-c3ccc(C(=O)N4CCc5cc6c(cc54)C4(CCO6)CCN(C)CC4)cc3)c(C)c2)o1 [Example 40, 1'-Methyl-6-[2°-methyl-4'-(5-methyl-1,3,4-oxadiazol-2-yl)biphenyl-4-carbonyl]-2,3,7,8-tetrahydrospiro[4H-pyrano[2,3-f]indole-4,4'-piperidine]]	< 10 nM
Cc1cc(-c2cnccn2)ccc1-c1ccc(C(=O)N2CCc3cc4c(cc32)C2(CCN(C)CC2)CO4)cc1 [Example 51, 1'-Methyl-5-(2'-methyl-4'-pyrazinylbiphenyl-4-carbonyl)-2,3,6,7-tetrahydrospiro[furo[2,3-f]indole-3,4'-piperidine]]	< 10 nM
Cc1cc(-c2nccnn2)ccc1-c1ccc(C(=O)N2CCc3cc4c(cc32)C2(CCN(C)CC2)CO4)cc1 [Example 57, 1'-Methyl-5-[2'-methyl-4'-(1,2,4-triazin-3-yl)biphenyl-4-carbonyl]-2,3,6,7-tetrahydrospiro[furo[2,3-f]indole-3,4'-piperidine]]	< 10 nM
Cc1nnc(-c2ccc(-c3ccc(C(=O)N4CCc5cc6c(cc54)C4(CCN(C)CC4)CO6)cc3)c(C)c2)o1 [Example 5, 1'-Methyl-5-(2'-methyl-4'-(5-methyl-1,3,4-oxadiazol-2-yl)biphenyl-4-carbonyl)-2,3,6,7-tetrahydrospiro[furo[2,3-f]indole-3,4'-piperidine]]	< 10 nM
Cc1cc(-c2noc(CO)n2)ccc1-c1ccc(C(=O)N2CCc3cc4c(cc32)C2(CCN(C)CC2)CO4)cc1 [Example 55, 5-[4'-(5-Hydroxymethyl-1,2,4-oxadiazol-3-yl)-2'-methylbiphenyl-4-carbonyl]-1'-methyl-2,3,6,7-tetrahydrospiro[furo[2,3-f]indole-3,4'-piperidine]]	< 10 nM
COC(=O)c1ccc(C)c(-c2ccc(C(=O)N3CCc4cc5c(cc43)C3(CCN(C)CC3)CO5)cc2)c1 [Example 23, 5-(5'-Methoxycarbonyl-2'-methylbiphenyl-4-carbonyl)-1'-methyl-2,3,6,7-tetrahydrospiro[furo[2,3-f]indole-3,4'-piperidine]]	< 10 nM

Reference: patent US5972951A, “Tetracyclic spiro compounds, process for their preparation and their use as 5HT1D receptor antagonists” (SmithKline Beecham plc, priority 1994, dated 1999)
